PMC12392461, “Beyond Estrogenicity: A Comparative Assessment of Bisphenol A and Its Alternatives in In Vitro Assays Questions Safety of Replacements” (Environmental Science & Technology, 2025)

What was measured:
[1] = biological target: T1, Estrogen Receptor ERα (Homo sapiens, UniProt P03372); experiment: aCYP oxidation followed by ERα-UAS-bla GripTite assay (TK-Ratio of effect); format: cell-based; settings: for EC10, before oxidation / EC10, after oxidation: ERα, in M; for EC10, after oxidation: after abiotic CYP catalyst; for TKERα: TKERα-Ratio
T1 sequence (P03372 311-547 limits assumed): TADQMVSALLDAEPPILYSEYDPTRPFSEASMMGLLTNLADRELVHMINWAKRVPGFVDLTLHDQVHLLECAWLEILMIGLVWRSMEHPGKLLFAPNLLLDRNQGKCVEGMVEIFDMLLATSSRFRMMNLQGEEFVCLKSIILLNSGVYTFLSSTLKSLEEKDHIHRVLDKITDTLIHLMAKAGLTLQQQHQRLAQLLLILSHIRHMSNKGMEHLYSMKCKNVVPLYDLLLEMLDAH
Description: Cell culture conditions and bioassay protocols including response detection are provided in Text S2.1–2.4 and Table S3. − Cell viability was determined from cell confluency using an IncuCyte S3 Live-Cell Analysis System (Sartorius AG, Essen, Germany) before and after exposure, except for SH-SY5Y cells (live–dead staining with Nuclear Green LcS1 and propidium iodide, Abcam, UK). For metabolic activation experiments, cell viability was assessed using the ToxBLAzer DualScreen Kit (Thermo Fisher Scientific) to capture the remaining toxicity in ERα-UAS-bla GripTite after treatment with the aCYP catalyst (details in Text S2.4). […]
The TK-Ratio method was used to evaluate the impact of abiotic CYP oxidation on the potency of tested compounds. […]
For experiments with the preceding aCYP activation, ERα cell viability was additionally calculated from the readout of the ToxBLAzer reagent. The ToxBLAzer assay was conducted following the manufacturer's instructions (Thermo Fisher, Waltham, MA, U.S.).13 Fluorescence intensity was recorded at the start of the assay ( Fwavelength(0h)) and after a 2-hour incubation at […]
Cell viability was assessed based on the red fluorescence signal at 665 nm, applying eq. S11 for normalization.
Cell viability = F665nm(2h, sample)-F665nm(0h, average cell-free) (S11) F665nm(2h, average unexposed)-F665nm(0h, average cell-free) […]
the specific endpoint to avoid artifacts from cytotoxicity burst. 15
S2.5: Concentration-response curves (CRCs)
To avoid bias from cytotoxicity burst at higher concentrations, all concentrations exceeding the IC10 for cytotoxicity were excluded in the CRC modeling of effects but otherwise cytotoxicity and effects were fitted with the same model equations (response stands for cytotoxicity or effect). For ERα, AhR, ARE and PPARγ preferably a linear model was fitted to the linear portion of CRC up to maximum 30% effect (eq. S12),16 but in some cases it was necessary to choose a sigmoidal log-concentration-response model, specifically a log-logistic model (eq. S13), to derive effect concentrations and cytotoxicity. For mitochondrial toxicity and neurotoxicity, the […]
are not reporter gene assays. Common practice when using log-logistic models, e.g., the model implemented in tcpl package in R,17, 18 is that the minima and maxima are also fitted and only median effect concentrations AC50 are derived. […]
concentrations (EC10) for both linear and log-sigmoidal CRCs to allow absolute comparisons at the same effect level and for TR and SR -analysis. This was done using the AutomatedBioassayScreening19 published by Braun et al.,20 which also included an algorithm to choose the best model between eq. S12 and eq. S13.
Response (%) = slope × C (S12) […]
logEC =logEC − 1 ∙log (max−min − 100%) (S14)

[2] = test system: HEK293H, HEK293T, H4IIe, MCF7 and SH-SY5Y cells; settings: for cytotoxicity,median REPBPA,IC10: median IC10 relative to BPA; for IC10,Median (M): median cytotoxicity of all cell lines; for IC10, median: median cytotoxicity over all cell lines
Description: Cell culture conditions and bioassay protocols including response detection are provided in Text S2.1–2.4 and Table S3. − Cell viability was determined from cell confluency using an IncuCyte S3 Live-Cell Analysis System (Sartorius AG, Essen, Germany) before and after exposure, except for SH-SY5Y cells (live–dead staining with Nuclear Green LcS1 and propidium iodide, Abcam, UK). For metabolic activation experiments, cell viability was assessed using the ToxBLAzer DualScreen Kit (Thermo Fisher Scientific) to capture the remaining toxicity in ERα-UAS-bla GripTite after treatment with the aCYP catalyst (details in Text S2.4).
For ARE, the concentration that triggered an induction ratio of 1.5 (ECIR1.5) was used as the benchmark value, as detailed in Text S2.5. IC10 values also served as a threshold for data analysis in all assays; only concentrations below IC10 were considered when deriving EC10 or ECIR1.5.
TR indicates whether the cytotoxicity is triggered by specific toxicity mechanisms (TR ≥ 10) or not (0.1< TR< 10). 3 TR=IC10,baseline/IC10 We measured the cytotoxicity of BPA and its alternatives in HEK293H (PPARγ), HEK293T (ERα), H4IIe (AhR CALUX), MCF7 (ARE/MMP), and differentiated SH-SY5Y cells (Table S6). […]
medium, supplemented with 2% B-27 Supplement and 2 mM GlutaMAX Supplement. SH - SY5Y cells were differentiated with 10 µM all-trans retinoic acid prior to the assay.
S2.2: Cell Seeding and Incubation. For all bioassays, cell suspensions in the respective assay medium were dispensed into each well of 384-well plates using a MultiFlo Dispenser (Biotek, (now Agilent), Winooski, VT, U.S.). After seeding, the plates were incubated at 37° C and 5% CO₂ for […]. The final cell densities and plate types were as follows: Black poly-D-lysine […]
6500 cells/well, ERα: 5000 cells/well. White 384-well plates with a clear bottom (Product No.
NYC, U.S.) for AhR: 3250 cells/well. Black Collagen I coated plates were used (Product No.
S2.3: Chemical Dosing and Assay Analysis Procedures. The dosing procedure and high-throughput assay workflow have been described in detail before. 9 The dosing concentrations […]
Stock solutions were then either added directly to the respective cell culture medium or evaporated under nitrogen, followed by replenishment with fresh medium. The final solvent content in each well was kept below 1% for methanol, 0% for acetonitrile.
Dosing plates were prepared as 11 -step serial dilutions using a Hamilton Microlab Star robotic system (Hamilton, Bonaduz, Switzerland), and chemicals were dosed in duplicates by transferring 10 μL twice from the dosing plates to the cell plates . After quantifying cell confluency as described in S2. 4., the exposed cells were incubated at 37° C and 5% CO₂ for an additional 24 h. All chemicals were tested in all assays with at least three independent […]
S2.4: Cell Viability Measurement s and bioanalytical protocols . The confluency as a measure of cell viability was determined with an IncuCyte S3 Live -Cell Analysis System (Sartorius AG, Essen, Germany). With this method the confluency of cells in a microscopy image are normalized to control wells without cells and compared before and after 24 hours of exposure.
This method has been described previously 13. Cell viability of SH-SY5Y cells was measured […]
propidium iodide (PI, Abcam, Cambridge, U.K.).14 Nuclear Green LCS1 is a membrane-permeable dye that stains the nuclei of all cells, whereas PI only enters cells with compromised membrane integrity (non-viable cells). After staining, live cells show green nuclei without red fluorescence, while dead cells display both green and red nuclear fluorescence due to PI […]
intercalation. Cell viability was calculated as the proportion of green-only nuclei relative to the […]
For experiments with the preceding aCYP activation, ERα cell viability was additionally calculated from the readout of the ToxBLAzer reagent. The ToxBLAzer assay was conducted following the manufacturer's instructions (Thermo Fisher, Waltham, MA, U.S.).13 Fluorescence

Compound | EC10, before oxidation ([1]; Table S10) | cytotoxicity,median REPBPA,IC10 [2] | IC10,Median (M) [2] | IC10, median [2] [µM] | estrogenic activity after aCYP oxidation [1] | EC10, after oxidation ([1]; Table S10) | TKERα ([1]; Table S10) | EC10, after oxidation ([1]; Table S11) | EC10, before oxidation ([1]; Table S11) | TKERα ([1]; Table S11)
CC1(C)C(O)C(C)(C)C1O (racemic) [r-TMCD, 2,2,4,4-Tetramethyl-1,3-cyclobutanediol (racemate)] | 1.18E-02 | 0.00844 | 8.29 × 10^–3 M | 8290 | – | – | – | – | – | –
O=S(=O)(c1ccc(O)cc1)c1ccccc1O [2,4-BPS, 2,4'-Dihydroxydiphenyl sulfone] | 3.59E-05 | – | – | – | – | – | – | – | – | –
CC(C)(c1ccc(OCC2CO2)cc1)c1ccc(OCC2CO2)cc1 (stereo not drawn) [BADGE, Bisphenol A diglycidyl ether] | – | 1.82 | 3.85 × 10^–5 M | 38.5 | – | – | – | – | – | –
CC(C)(c1ccc(O)cc1)c1ccc(O)cc1 [BPA, 4,4'-(Propane-2,2-diyl)diphenol, reference compound] | 3.70E-07 | – | – | – | remained unchanged or decreased | 4.48E-07 | 0.827 | 3.06E-07 | 3.74E-07 | 1.22
Oc1ccc(C(c2ccc(O)cc2)(C(F)(F)F)C(F)(F)F)cc1 [BPAF, 4,4'-(1,1,1,3,3,3-Hexafluoropropane-2,2-diyl)diphenol] | – | 3.07 | 2.28 × 10^–5 M | 22.8 | – | – | – | – | – | –
CC(c1ccccc1)(c1ccc(O)cc1)c1ccc(O)cc1 [BPAP, 4,4'-(1-Phenylethylidene)bisphenol] | – | 2.12 | 3.31 × 10^–5 M | 33.1 | – | – | – | – | – | –
CCC(C)(c1ccc(O)cc1)c1ccc(O)cc1 [BPB, 4,4'-(Butane-2,2-diyl)diphenol] | 1.07E-07 | 1.93 | 3.62 × 10^–5 M | 36.2 | – | 3.59E-07 | 0.2982 | – | – | –
CC(c1ccc(O)cc1)c1ccc(O)cc1 [BPE, 4,4′-Ethylidenbisphenol] | – | 0.88 | 7.91 × 10^–5 M | 79.1 | – | – | – | – | – | –
Oc1ccc(Cc2ccc(O)cc2)cc1 [BPF, Bis(4-hydroxyphenyl)methane] | 9.67E-07 | 0.17 | 4.09 × 10^–4 M | 409 | – | 1.00E-06 | 0.964 | 1.36E-06 | 1.26E-06 | 0.93
CC(C)(c1ccc(O)c(-c2ccccc2)c1)c1ccc(O)c(-c2ccccc2)c1 [BPPH, 2,2-Bis(2-hydroxy-5-biphenylyl)propane] | – | 8.72 | 8.02 × 10^–6 M | 8.02 | – | – | – | – | – | –
O=S(=O)(c1ccc(O)cc1)c1ccc(OCc2ccccc2)cc1 [BPS-MPE, 4-[4-(benzyloxy)benzenesulfonyl]phenol] | – | 0.62 | 1.12 × 10^–4 M | 112 | – | – | – | – | – | –
Oc1ccc(C2(c3ccc(O)cc3)CCCCC2)cc1 [BPZ, 1,1'-Bis(4-hydroxyphenyl)cyclohexane] | – | 1.33 | 5.28 × 10^–5 M | 52.8 | – | – | – | – | – | –
Cc1ccc(S(=O)(=O)NC(=O)Nc2cccc(OS(=O)(=O)c3ccc(C)cc3)c2)cc1 [Pergafast, N-(p-toluenesulfonyl)-N'-(3-(p-toluenesulfonyloxy)phenyl)urea] | – | 3.67 | 1.91 × 10^–5 M | 19.1 | – | – | – | – | – | –
CC(C)(c1cc(Cl)c(O)c(Cl)c1)c1cc(Cl)c(O)c(Cl)c1 [TCBPA, 2,2',6,6'-Tetrachlorobisphenol A] | – | 0.89 | 7.84 × 10^–5 M | 78.4 | – | – | – | – | – | –
Cc1cc(Cc2cc(C)c(O)c(C)c2)cc(C)c1O [TMBPF, Bis(3,5-dimethyl-4-hydroxyphenyl)methane] | – | 5.51 | 1.27 × 10^–5 M | 12.7 | – | – | – | – | – | –
